Data: US7427590B2, “Neurothrophic components of the ADNF I complex” (The United States of America as represented by the …, priority 2001, dated 2008)
Entries after “also recorded” stand apart in the source; their conditions may differ. Where two headings read alike, the source gives them in different places. Non-standard residues stand in square brackets, D forms with d. Residues, ends and D or L forms follow the SMILES beside them. *: point of attachment. Sta = CC(C)C[C@H](N)[C@@H](O)CC(=O)O; Isovaleryl = CC(C)CC(=O)*

Key:
[1] = tested on: 14 kDa purified ADNF I complex; type: cell-based; details: pre-treatment of ADNF I, 1 μM TTX; for Effect on survival-promoting peak of component II (10^−8 dilution): 1 μM pepstatin A or 10 μg/ml E-64; for Effect on survival-promoting peak of component I (10^−12 dilution) / Effect on survival-promoting peak of component III (10^−5 dilution): 1 μM pepstatin A, 10 μg/ml E-64 or 0.1 mM subtilisin V inhibitor
[2] = tested on: component II of the ADNF I complex; assay: Blockade of component II protease activity in cell-free protease assay; type: biochemical; details: 10 μl of pepstatin stock (1 mg/ml methanol, diluted 1:100)
Description: FIG. 28. A time course of component II (see FIGS. 26 and 27) in a cell-free protease assay using Bz-Arg-Gly-Phe-Phe-Pro-MβNA, HCl (Cathepsin D substrate). The conditions of the assay are as follows: 10 μl of substrate (5 mg dissolved in 100 μl of DMSO (dimethyl sulfoxide), diluted to 1 ml of water), 10 μl of 10 mM CaCl2; 50 μl of component II (10^−8 dilution of the preparation characterized in FIGS. 26 and 27); and 30 μl of buffer (0.5 M dibasic phosphate, pH 7.8). For this assay, buffer, enzyme, calcium were added to 96 well culture trays. Based on glycoprotein alpha-1 acid standards on NCHO capillary, the optimum protease activity is observed at 1 fM amounts of components II.
FIG. 29. […] In culture wells treated with pepstatin, 10 μl of the stock solution (1 mg dissolved in 1 ml of methanol, diluted 1:100 with water) was added. In control wells, an addition 10 ul of methanol/water (1:100 dilution in water) alone was added. Fluorescence changes indicative of peptide subtract cleavage were monitored as described in FIG. 28.

[3] = tested on: dissociated cerebral cortical cultures; type: cell-based, rat

CC(C)CC(=O)N[C@H](C(=O)N[C@H](C(=O)N[C@@H](CC(C)C)[C@@H](O)CC(=O)N[C@@H](C)C(=O)N[C@@H](CC(C)C)[C@@H](O)CC(=O)O)C(C)C)C(C)C [Pepstatin A] (Isovaleryl-VV[Sta]A[Sta]-OH)
Effect on survival-promoting peak of component II (10^−8 dilution) [1]: prevented
Effect on survival-promoting peak of component II (10^−8 dilution) ([1]; listed as pepstatin A): blocked
Effect on survival-promoting peak of component II (10^−8 dilution) ([1]; listed as peptstatin A): inhibited
Effect on survival-promoting peak of component I (10^−12 dilution) [1]: small decrease
Effect on survival-promoting peak of component III (10^−5 dilution) [1]: not affected
Effect on component II-mediated increases in protease activity [2]: prevent the component II-mediated increases in protease activity

C[C@H](NC(=O)OC(C)(C)C)C(=O)N1CCC[C@H]1C(=O)N[C@@H](Cc1ccccc1)C(=O)NOC(=O)c1ccc(Cl)cc1 [subtilisin V inhibitor, Boc-Ala-Pro-Phe-NHO-Bz-pCl]
Effect on survival-promoting peak of component I (10^−12 dilution) [1]: enhanced
Effect on survival-promoting peak of component III (10^−5 dilution) [1]: enhanced

NNSTTYAPISANVSTALGSTAALPTAAGPV
Another peak of activity (concentration) [3]: 10^−8 M
Survival-promoting activity of digest peptide fractions (neuronal cell counts) [3]: Significant increases in neuronal cell counts

CC(C)C[C@H](NC(=O)[C@H]1O[C@@H]1C(=O)O)C(=O)NCCCCN=C(N)N [E-64]
Effect on survival-promoting peak of component II (10^−8 dilution) [1]: not diminished
Effect on survival-promoting peak of component I (10^−12 dilution) [1]: inhibited; also recorded: prevented; also recorded: blocked
Effect on survival-promoting peak of component III (10^−5 dilution) [1]: inhibited; also recorded: prevented; also recorded: blocked

GPTADITLTK
Survival-promoting activity of digest peptide fractions (neuronal cell counts) [3]: Significant increases in neuronal cell counts

SESSGTSELLTR
Survival-promoting activity of digest peptide fractions (neuronal cell counts) [3]: Significant increases in neuronal cell counts
